Results taken from article PMC9848351, “Discovery of new pyridine-quinoline hybrids as competitive and non-competitive PIM-1 kinase inhibitors with apoptosis induction and caspase 3/7 activation capabilities” (Journal of Enzyme Inhibition and Medicinal Chemistry, 2023).

How the values were obtained:
HepG-2 = assay: Flow cytometric annexin V/PI analysis of apoptosis, HepG-2; format: cell-based, human; details: IC50 of compound, 72 h, mean ± SEM
[1] = system: Colon cancer cells (Caco-2); assay: MTT anticancer activity, Caco-2; format: cell-based, human
How it was run: (§1)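 Cells seeded at 5x10^3/well (Caco-2 in DMEM, others in RPMI-1640, 10% FBS) and exposed to serial compound concentrations for 72 h at 37 °C, 5% CO2, starting 24 h after seeding. MTT (3 h, 37 °C) read at 570 nm after DMSO solubilisation; IC50 calculated from viability.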

NFS-60 = assay: Flow cytometric annexin V/PI analysis of apoptosis, NFS-60; format: cell-based, human; details: IC50 of compound, 72 h, mean ± SEM
Protocol: (§2) The apoptosis-dependent […] was determined by quantification of annexin-stained apoptotic cells using the FITC signal detector (FL1) against the phycoerythrin emission signal detector (FL2) (Supplementary Page S55). […]
(§3) MTT method was used for assaying cell viability 25. Twenty microliters of 5 mg/ml MTT (Sigma, USA) was added to each well and the plate was incubated at […]
(§4) 37 °C for 3 h. […]
(§5) Graphpad Instat software.
(§6) Determination of the anticancer activity
(§7) Anticancer effect of the above-mentioned compounds was evaluated using four human cancer cell lines. Colon cancer cells (Caco-2) were maintained in DMEM (Lonza, USA) containing 10% FBS while myeloid leukemia cell line (NFS-60), liver cancer cell line (HepG-2) and prostate cancer cell line (PC-3) were cultured in RPMI-1640 (Lonza, USA) supplemented with 10% FBS. All cancer cells (5x10^3 cells/well) were seeded in sterile 96-well plates. After 24h, serial concentrations of the tested compounds and Dox were incubated with four cancer cell lines for 72 h at 37 °C in 5% CO2 incubator. MTT method was done as described above. The Graphpad Instat software was used for calculating the half maximal inhibitory concentration (IC50) values. […]
(§8) Flow cytometric analysis of apoptosis
(§9) Caco-2, PC-3 and NFS-60 cell lines. After trypsinization, the untreated and treated cells were incubated with annexin V/PI for 15 min. Then cells were fixed and incubated with streptavidin-fluorescein (5 µg/mL) for 15 min. The apoptosis-dependent anticancer effect was determined by quantification of annexin-stained apoptotic cells using the FITC signal detector (FL1) against the phycoerythrin emission signal detector (FL2). […]

[2] = system: myeloid leukaemia cell line (NFS-60); assay: MTT anticancer activity, NFS-60; format: cell-based; details: NFS-60, 72 h, MTT; mean ± SEM
How it was run: as §1

PIM-1 kinase [3] = biological target: T1, PIM-1 kinase (Homo sapiens, UniProt P11309); assay: PIM-1 kinase inhibitory activity (Promega kinase assay kit)
T1 sequence (P11309 whole entry): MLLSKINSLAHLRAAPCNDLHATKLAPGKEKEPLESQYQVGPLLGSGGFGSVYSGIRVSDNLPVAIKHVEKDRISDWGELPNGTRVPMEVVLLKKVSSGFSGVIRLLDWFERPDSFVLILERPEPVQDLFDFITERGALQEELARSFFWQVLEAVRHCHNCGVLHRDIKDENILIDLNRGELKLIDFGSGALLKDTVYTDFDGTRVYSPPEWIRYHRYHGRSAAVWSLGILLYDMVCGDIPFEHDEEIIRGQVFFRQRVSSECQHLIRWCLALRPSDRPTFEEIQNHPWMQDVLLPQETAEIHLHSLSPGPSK

[4] = system: normal human lung fibroblast Wi-38 cell line; assay: MTT cytotoxicity on normal cells; format: cell-based
How it was run: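 Wi-38 fibroblasts in DMEM with 10% FBS were seeded at 5x10^3 cells/well, left 24 h to attach, then exposed to serial compound concentrations for 72 h at 37 °C, 5% CO2. MTT was added for 3 h, formazan dissolved in DMSO and absorbance read at 570 nm. IC50 and EC100 (safe dose) were estimated from the concentration series.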

[5] = system: prostate cancer cell line (PC-3); assay: MTT anticancer activity, PC-3; format: cell-based, human; details: Homo sapiens, 72 h, PC-3, 72 h, mean ± SEM
How it was run: as §1

PIM-1 kinase [6] = biological target: T1, PIM-1 kinase; assay: Mechanism of PIM-1 kinase inhibition, Lineweaver–Burk double-reciprocal plot; format: biochemical; design: purchased Promega Corporation #V4032
PC-3 = assay: Flow cytometric annexin V/PI analysis of apoptosis, PC-3; format: cell-based, human; details: IC50 of compound, 72 h, mean ± SEM
Protocol: as §2, §3, §4, §5, §6, §7, §8, §9

[7] = system: liver cancer cell line (HepG-2); assay: MTT anticancer activity, HepG-2; format: cell-based, human; details: Homo sapiens, HepG2; HepG-2, 72 h, MTT; mean ± SEM
How it was run: as §1

PIM-2 kinase = PIM-2 kinase (Homo sapiens, UniProt Q9P1W9); assay: PIM-2 kinase inhibitory activity (Promega kinase assay kit)
Chain of PIM-2 kinase (Q9P1W9 whole entry): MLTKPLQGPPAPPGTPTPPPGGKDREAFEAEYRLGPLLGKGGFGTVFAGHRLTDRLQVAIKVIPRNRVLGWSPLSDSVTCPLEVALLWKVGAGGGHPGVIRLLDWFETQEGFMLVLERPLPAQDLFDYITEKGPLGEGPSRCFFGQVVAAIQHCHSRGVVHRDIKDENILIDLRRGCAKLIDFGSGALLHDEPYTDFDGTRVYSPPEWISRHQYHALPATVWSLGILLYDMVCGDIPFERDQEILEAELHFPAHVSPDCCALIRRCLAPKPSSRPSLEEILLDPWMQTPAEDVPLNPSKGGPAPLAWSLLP

[8] = system: caspase 3/7 in HepG-2 cells; assay: Caspase 3/7 activation assay (Apo-ONE kit); format: cell-based, human; details: caspase 3/7, relative to untreated HepG2 cells; mean ± SEM
Description: The percentage of caspase 3/7 activation was quantified using the Apo-ONE ® caspase 3/7 kit following the manufacturer’s instructions[27] (Supplementary Page S56).
It’s a fluorescence assay that measures caspase-3 and −7 activities. Caspase 3/7 activators are well known as apoptotic inducers.
Caspase 3/7 activation assay
The Apo-ONE ® caspase 3/7 kit following the manufacturer’s instructions was used for quantifying the percentage of caspase 3/7 activation. The fluorescence substrate present in the kit was cut by caspases to produce fluorescence signal. This signal was measured by the fluorescence omega microplate reader (BMG LabTech, Germany) at 490 nm excitation and 520 nm emission.
Data were expressed as mean ± standard error of the mean (SEM). Statistical significance was estimated by the multiple comparisons Tukey post-hoc analysis of variance (ANOVA) using the SPSS16 program. When p < 0.05, the differences were marked as statistically significant.
PIM-1 and PIM-2 kinase inhibitory activity
PIM-1 and PIM-2 kinase utilizing PIM-1 and PIM-2 Kinase Assay Kit – Promega Corporation catalog #V4032, following the manufacturer’s instructions 26 […]
Information Classification: General

Caco-2 = assay: Flow cytometric annexin V/PI analysis of apoptosis, Caco-2; format: cell-based; details: IC50 of compound, 72 h, mean ± SEM
Protocol: as §2
(§10) MTT method was used for assaying cell viability 25. Twenty microliters of 5 mg/ml MTT (Sigma, USA) was added to each well and the plate was incubated at 37 °C for 3 h. Then MTT solution was removed, 100 µl DMSO was used and the absorbance of each well was measured with a microplate reader ( BMG LabTech, […]
(§11) Germany) at 570 nm. […]
as §5, §6
Anticancer effect of the above-mentioned compounds was evaluated using four human […]
cancer cell lines. […]
All cancer cells (5x10^3 cells/well) were seeded in sterile
96-well plates. After 24h, serial concentrations of the tested compounds and Dox were incubated with four cancer cell lines for 72 h at 37 °C in 5% CO2 incubator. MTT method was done as described above. The Graphpad Instat software was used for calculating the half maximal inhibitory concentration (IC50) values. […]
as §8, §9

[9] = system: HepG-2, Caco-2, NFS-60, and PC-3 cancer cell lines; format: cell-based, human
Protocol: as §2, §10, §11, §5, §6
Anticancer effect of the above-mentioned compounds was evaluated using four human cancer cell lines. Colon cancer cells (Caco-2) were maintained in DMEM (Lonza, USA) containing 10% FBS while myeloid leukemia cell line (NFS-60), liver cancer cell line (HepG-2) and prostate cancer cell line (PC-3) were cultured in RPMI-1640 (Lonza, USA) supplemented with 10% FBS. All cancer cells (5x10^3 cells/well) were seeded in sterile 96-well plates. […]
Caco-2, PC-3 and NFS-60 cell lines. […] The apoptosis-dependent anticancer effect was determined by quantification of annexin-stained apoptotic cells using the FITC signal detector (FL1) against the phycoerythrin emission signal detector (FL2). […]

Compound	total percentage of the apoptotic cell population, HepG-2 (HepG-2) [%]	IC50 ([1]; Homo sapiens, Caco-2, 72 h, MTT, mean ± SEM) [nM]	Caco-2 LE ([1]; ligand efficiency from IC50 and number of heavy atoms)	Caco-2 LLE ([1]; ligand lipophilic efficiency, potency in terms of lipophilicity)	Caco-2 SI ([1]; selectivity index, Wi-38 versus Caco-2)	total percentage of the apoptotic cell population, NFS-60 (NFS-60) [%]	IC50 [2] [nM]	IC50 (PIM-1 kinase [3]) [nM]	EC50 ([4]; Homo sapiens, Wi-38, 72 h, MTT, 50% cell viability, mean ± SEM) [nM]	Wi-38 EC100 ([4]; Wi-38, 72 h, MTT, safe dose, 100% cell viability, mean ± SEM) [µM]	IC50 [5] [nM]	mechanism of PIM-1 kinase inhibition (PIM-1 kinase [6])	Vmax compared with control (PIM-1 kinase [6]; Y-intercept)	total percentage of the apoptotic cell population, PC-3 (PC-3) [%]	IC50 [7] [nM]	IC50 (PIM-2 kinase) [nM]	Fold increase in caspase activity [8] [fold]	total percentage of the apoptotic cell population, Caco-2 (Caco-2) [%]	IC50 ([4]; Homo sapiens, Wi-38, MTT, read-out: IC50 on human lung fibroblasts (Wi-38)) [nM]	apoptosis-dependent death / percentage of annexin-stained population cells [9]
COc1ccc2nc(N3CCCCC3)c(-c3cc(-c4cccc(O)c4)nc(S)c3C#N)cc2c1 [6e, 6-(3-Hydroxyphenyl)-4-(6-methoxy-2-(piperidin-1-yl)quinolin-3-yl)-2-mercaptopyridine-3-carbonitrile]	69.02 ± 0.18	27 ± 2	0.30	2.73	5.741	68.385 ± 0.54	53.9 ± 0.1	1100	155 ± 3	0.0277 ± 0.0001	42.9 ± 3	competitive inhibitors	the same Vmax in comparison with control	68.81 ± 0.49	12.2 ± 0.1	1490				
COc1cccc2c1C(=O)c1c(O)c3c(c(O)c1C2=O)C[C@@](O)(C(=O)CO)C[C@@H]3O[C@H]1C[C@H](N)[C@H](O)[C@H](C)O1 [Dox, doxorubicin, reference compound]	39.265 ± 0.81					37.89 ± 0.28	33.2							34.59 ± 0.21	50.4		1.61 ± 0.088	36.08 ± 0.23	26.6	less than 39%
